Data as given in US9560876B2, “Acylamino acid compounds and food preparations containing same” (Nestec S.A., priority 2008, dated 2017).

Target: human TRPA1 (Homo sapiens, UniProt O75762)
Test: Intracellular calcium [Ca2+]i flux in HEK 293 cells stably expressing TRPA1 (FLEXstation, Fura-2/AM)
Type: cell-based
Details: saturating concentration
Procedure: Cloning and Expression of Human TRPV1 and TRPA1 Receptors in HEK 293 Cells: Cloning and expression of these receptors was performed following previously published protocols. Briefly, cloned human TRPV1 cDNA was obtained from RZPD (Germany) and hTRPA1 cDNA from OriGene (Rockville, Md.). Genes were subcloned into pcDNA5/FRT (Invitrogen, Carlsbad, Calif.) to generate stable cell lines using the Flp-In system (Invitrogen) after sequencing verification.
Measurement of Intracellular Calcium Levels [Ca2+]i and Membrane Potential Variation in HEK 293 Cells Using a Fluorescent Plate Reader: Cell lines stably expressing TRP channels were seeded into 96-well plates previously coated with poly-D-lysine. […] [Ca2+]i fluxes from a homogeneous cell population (approximately 100000 cells) were measured as changes in fluorescence intensity when stimulated with agonists using a FLEXstation (Molecular Devices). […]
Data Analysis: Responses of molecules in HEK 293 cells were expressed as a percentage of maximum responses evoked by 150 μM cinnamaldehyde for TRPA1 and 1 μM capsaicin for TRPV1 (these concentrations were assessed independently to be saturating under these conditions). For all experiments, calcium fluxes were measured as changes in fluorescence intensity, before and after the addition of agonists. […] Data obtained from this study were expressed as mean SEM. […]

Chain of human TRPA1 (O75762 whole entry): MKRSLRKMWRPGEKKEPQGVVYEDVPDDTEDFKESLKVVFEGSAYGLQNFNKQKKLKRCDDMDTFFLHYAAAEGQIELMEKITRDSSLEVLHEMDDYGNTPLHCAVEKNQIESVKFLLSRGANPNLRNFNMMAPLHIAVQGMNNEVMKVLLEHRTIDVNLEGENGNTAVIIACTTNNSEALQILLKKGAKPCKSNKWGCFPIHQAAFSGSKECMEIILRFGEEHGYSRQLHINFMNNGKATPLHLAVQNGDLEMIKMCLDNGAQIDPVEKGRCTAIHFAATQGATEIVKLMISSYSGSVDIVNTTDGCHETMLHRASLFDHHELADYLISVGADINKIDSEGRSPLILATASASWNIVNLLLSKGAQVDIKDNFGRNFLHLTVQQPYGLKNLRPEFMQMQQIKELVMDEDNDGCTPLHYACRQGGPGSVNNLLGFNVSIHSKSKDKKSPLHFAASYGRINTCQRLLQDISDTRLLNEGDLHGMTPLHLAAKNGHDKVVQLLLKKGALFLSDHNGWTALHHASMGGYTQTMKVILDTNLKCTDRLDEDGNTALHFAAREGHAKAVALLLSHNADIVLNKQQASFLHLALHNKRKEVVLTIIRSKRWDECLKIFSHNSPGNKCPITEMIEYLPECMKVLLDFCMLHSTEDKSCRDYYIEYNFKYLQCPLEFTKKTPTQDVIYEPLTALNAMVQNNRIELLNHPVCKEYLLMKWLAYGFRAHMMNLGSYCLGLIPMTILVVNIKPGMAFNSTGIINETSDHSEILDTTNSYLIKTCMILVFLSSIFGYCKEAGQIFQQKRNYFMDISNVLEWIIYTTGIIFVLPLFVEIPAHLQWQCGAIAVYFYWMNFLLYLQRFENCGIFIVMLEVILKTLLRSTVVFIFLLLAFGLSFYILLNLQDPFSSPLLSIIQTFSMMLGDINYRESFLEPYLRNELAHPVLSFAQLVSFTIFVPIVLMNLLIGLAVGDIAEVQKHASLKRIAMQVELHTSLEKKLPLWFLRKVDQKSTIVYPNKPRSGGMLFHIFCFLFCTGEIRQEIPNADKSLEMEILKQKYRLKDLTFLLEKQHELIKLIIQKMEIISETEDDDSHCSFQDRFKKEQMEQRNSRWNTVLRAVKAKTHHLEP

SMILES: CCC=CCC=CCC=CCCCCCCCC(=O)NC(C)C(=O)O (centres unmarked) [K]
- selectivity of activation, TRPA1 versus TRPV1 (comparison of TRPA1 and TRPV1 activation in HEK 293 cells): purely activating TRPA1
- maximum activation on TRPA1 (responses expressed as percentage of maximum response evoked by 150 μM cinnamaldehyde, FIG. 1): strong stimulating effect
